What was measured:
[1] = test system: lympha cells; assay: Mitogenic activity in vitro (Blastogenic index); format: cell-based, C3H/He male mice; conditions: Mus musculus, Lymphocyte; terminal concentration 1 μg/ml; ratio of 3H-tymidine uptake vs blank control; read-out: Blastgenic Index
Method: (1) Mitogenic activity in vitro
Mitogenic activity means activity of activating mitogenic cell division, and in this test system, the amount of tymidine taken into lympha cells was measured and a ratio determined against a blank control call (Blastogenic index) was calculated.
For example, adding the compound prepared in example 1(c) to the test system induced 30 times the amount of tymidine taken into the lympha cells versus the control.
The amounts were measured by density of a radiolabel.
Mytogenic activity in vitro was measured by the following method (See Procedure Method of Immunoexperiment pp 315 published by Japan Immunology Society).
C3H/He male mice 6 weeks old were killed by bloodletting, and their spleens were isolated and homogenized. Homogenizing liquids were filtered with gauze, and suspending cells were prepared with PBS solution. After washing, lymphacytes fractions were gathered with lympholight M. Lymphacytes were suspended in RPMI 1640 cultivation solution (10% FEBS), and the solution was divided into 5×10^5 cells/180 μl/wells. Ten times concentration of the terminal concentration (1 μg/ml) of the compounds of the present invention were added with 20 μl portions to each of the wells.
After cultivation, ^3 H-tymidine 0.5 μCi/20 μl was added to the each cells. Cultivation was continued at 37° C. for another 24 hrs, and amounts of ^3 H-tymidine taken into the cells were measured. Mitogenic activities were calculated as by Blastogenic index in as follows. [formula]

[2] = test system: Mice L-M cells; assay: Inducing activities of TNF in vitro (cytotoxicity of serum from treated mice); format: cell-based, mice (ICR male mice serum; mice L-M cells); conditions: Mus musculus, iv; 10 μg via tail vein, serum 90 mins after; L-M cells 48 hrs; read-out: Cytotoxicities
Method: (2) Inducing activities of TNF in vitro
Inducing activity of TNF in vitro was measured by the following test system.
Corye parvum (manufactured by Ribi Immuno Chem. Research Inc.) was administered in ICR male mice 6-weeks old through the tail vein as priming agent. Ten days later, the compounds of the present invention (10 μg) were administered through tail vein as eliciting agent. 90 mins after the administration, blood was collected from the hearts, and blood serums were separated.
Mice L-M cells (10^4 /100 μl/well) suspended in a mixture of the diluted serum solution (100 μl/well) and RPMI 1640 cultivating solution (10% FEBS and 0.2% glucose; manufactured by Nissui Pharmaceutical Co.) were cultivated in an atmosphere of a mixed gas of 5% CO2 -[…], for 48 hrs at 37° C., after adding ^3 H-tymidine taken (0.5 μCi/20 μl/well). Amounts of ^3 H-tymidine taken into cells during the cultivation were measured.
Inducing activities of TNF were measured by cytotoxicity calculated as follows: [formula]

[3] = test system: RLδ1 tumor; assay: Anti-tumor effect on Balb/C mice inoculated with RLδ1 tumor; format: in vivo, female Balb/C mice; conditions: for Survival period: Day 10, day ± standard error; for effect on tumor regression: 3 mg/body, Day 14 (4 day after administration); for Appearent tumor weight: g ± standard error
Method: (2) Anti-tumor effect on Balb/C mice inoculated with RLδ1 tumor.
Tumor cells which had been maintained in ascites of Balb/C mouse generation after generation was used. One group is consisting of six female balb/C mice. RLδ1 tumor (1×10^5 cells/0.05 ml) was inoculated into left side of female mice of 6-week old (body weight: 18~20 g). Ten days after, when tumore size came to 7~10 mm, compound of example No. 1(1) or 1(t) was administered by i.p. route (Day 10). Dose of test compound was 1 and 3 mg/body dand each test compound solution volume was 10 ml/kg. Antitumore effect is estimated by survival period and tumor appearent weight.
Test results about survival period and tumor apparent weight are shown in the following Tables II(3) and II(4), respectively.

[4] = test system: Meth-A sarcoma; assay: Anti-tumor effect on Balb/C mice inoculated with Meth-A Sarcoma; format: in vivo, female Balb/C mice; conditions: for Apperarent tumor weight: g ± standard error; for effect on prolongation of life / effect on tumore regression: at the dose of 3 mg/kg; for Survival period: iv tail vein Day 7, 9, 12, day ± standard error
Method: (1) Anti-tumor effect on Balb/C mice inocudlated with Meth-A Sarcoma
Anti-tumor effect was measured by the following procedure.
Tumor cells which had been maintained in ascites of Balb/C mouse generation after generation was used. One group is consisting of eight female Balb/C mice. Meth-A sarcoma tumor (1×10^5 cells/0.05 ml) was inoculated into left side of female mice of 7-week old (body weight: 18-20 g). Seven day after, when tumor size came to 6~9 mm, test compound was administered into tail vein first (day 7) and then administered two times (total three times: Day 7, 9, 12). Dose of test compound is 3 and 10 mg/kg or 3, 10 and 30 mg/kg and each test compound solution volume was 10 ml/kg. Anti-tumor effect is estimated by survival period (from inoculation day to death day) and tumor apparent weight. [formula] Test results about survival period and tumor appearent weight are shown in the following Tables II(1) and II(2), respectively.
In experiments, statistic analysis was done with unpaired Student's t(two tailed)-test. […] P values lower than 0.05 were judged to be significant.

[5] = dose 1 (mg/kg as printed) ip, Day 10 (first column)
[6] = dose 1 (mg/kg as printed) ip, second column printed Day 10
[7] = dose 3 (mg/kg as printed) ip, Day 10 (first column)
[8] = dose 3 (mg/kg as printed) ip, second column printed Day 10

Compound: CCCCCCCCCCCC(CC(=O)N[C@H]1COC[C@@H](OS(=O)(=O)O)[C@@H]1OC(=O)CCCCCCCCc1ccccc1)OC(=O)CCCCCCCCc1ccccc1 (single isomer, unassigned) [3(c), 2-deoxy-2-[3-(9-phenylnonanoyl)oxytetradecanoyl]amino-3-O-(9-phenylnonanoyl)-4-O-sulfo-1,5-anhydro-D-xylitol]
- fold induction at 1 µg/mL [1]: 13.8

Compound: CCCCCCCCCCCC(CC(=O)N[C@H]1COC[C@@H](OS(=O)(=O)O)[C@@H]1OC(=O)CCCCCCCCc1ccccc1)OC(=O)CCCCCCCCc1ccccc1 (single isomer, unassigned) [Example 3, 2-deoxy-2-[3-(9-phenylnonanoyl)oxytetradecanoyl]amino-3-O-(9-phenylnonanoyl)-4-O-sulfo-1,5-anhydro-D-xylitol]
- cytotoxicity at 0.01 mg [2]: 50.7%

Compound: CCCCCCCCCCC[C@@H](CC(=O)N[C@H]1C(O)O[C@H](CO)[C@@H](OS(=O)(=O)O)[C@@H]1OC(=O)CCCCCCCCCCc1ccccc1)OC(=O)CCCCCCCCCCc1ccccc1 (stereo partly drawn) [1(f), 2-deoxy-2-[3S-(11-phenylundecanoyloxy)tetradecanoyl]amino-3-O-(11-phenylundecanoyl)-4-O-sulfo-D-glucopyranose]
- fold induction at 1 µg/mL [1]: 23

Compound: CCCCCCCCCCC[C@@H](CC(=O)N[C@H]1C(O)O[C@H](CO)[C@@H](OS(=O)(=O)O)[C@@H]1OC(=O)CCCCCCCOc1ccccc1)OC(=O)CCCCCCCOc1ccccc1 (stereo partly drawn) [1(l), 2-deoxy-2-[3S-(8-phenoxyoctanoyloxy)tetradecanoyl]amino-3-O-(8-phenoxyoctanoyl)-4-O-sulfo-D-glucopyranose]
- Survival period ([3]; 1 mg/body ip): 47.3 ± 18.8 days
- Survival period ([3]; 3 mg/body ip): 55.3 ± 16.4 days
- effect on tumor regression [3]: significant effect
- Appearent tumor weight [3, 5]: 0.216 ± 0.043 g
- Appearent tumor weight [3, 6]: 0.234 ± 0.168 g
- Appearent tumor weight ([3]; dose 1 (mg/kg) ip, Day 13): 0.351 ± 0.349 g
- Appearent tumor weight [3, 7]: 0.216 ± 0.029 g
- Appearent tumor weight [3, 8]: 0.210 ± 0.192 g
- Appearent tumor weight ([3]; dose 3 (mg/kg) ip, Day 13): 0.333 ± 0.375 g

Compound: CCCCCCCCCCC[C@@H](CC(=O)N[C@H]1C(O)O[C@H](CO)[C@@H](OS(=O)(=O)O)[C@@H]1OC(=O)CCCCCCCCc1cccc2ccccc12)OC(=O)CCCCCCCCc1cccc2ccccc12 (stereo partly drawn) [1(o), 2-deoxy-2-[3S-[9-(1-naphthyl)nonanoyloxy]tetradecanoyl]amino-3-O-[9-(1-naphthyl)nonanoyl]-4-O-sulfo-D-glucopyranose]
- fold induction at 1 µg/mL [1]: 17

Compound: CCCCCCCCCCC[C@H](CC(=O)N[C@H]1[C@H](OC)O[C@H](CO)[C@@H](OS(=O)(=O)O)[C@@H]1OC(=O)CCCCCCCCc1ccccc1)OC(=O)CCCCCCCCc1ccccc1 [1(t), 2-methyl-2-deoxy-2-[3R-(9-phenylnonanoyloxy)tetradecanoyl]amino-3-O-(9-phenylnonanoyl)-4-O-sulfo-β-D-glucopyranoside]
- fold induction at 1 µg/mL [1]: 50
- Survival period ([3]; 1 mg/body ip): 51.8 ± 20.1 days
- Survival period ([3]; 3 mg/body ip): 54.0 ± 18.4 days
- effect on tumor regression [3]: significant effect
- Appearent tumor weight [3, 5]: 0.226 ± 0.082 g
- Appearent tumor weight [3, 6]: 0.241 ± 0.257 g
- Appearent tumor weight ([3]; dose 1 (mg/kg) ip, Day 13): 0.383 ± 0.583 g
- Appearent tumor weight [3, 7]: 0.213 ± 0.041 g
- Appearent tumor weight [3, 8]: 0.159 ± 0.092 g
- Appearent tumor weight ([3]; dose 3 (mg/kg) ip, Day 13): 0.147 ± 0.153 g

Compound: O=C(CCCCCCCCc1cccc2ccccc12)N[C@H]1C(O)O[C@H](CO)[C@@H](OS(=O)(=O)O)[C@@H]1OC(=O)CCCCCCCCc1cccc2ccccc12 (stereo partly drawn) [1(u), 2-deoxy-2-[9-(1-naphthyl)nonanoyl]amino-3-O-[9-(1-naphthyl)nonanoyl]-4-O-sulfo-D-glucopyranose]
- fold induction at 1 µg/mL [1]: 10

Compound: CCCCCCCCCCOc1ccc(C(=O)N[C@H]2[C@@H](OC)O[C@H](CO)[C@@H](OS(=O)(=O)O)[C@@H]2OC(=O)c2ccc(OCCCCCCCCCC)c(OCCCCCCCCCC)c2)cc1OCCCCCCCCCC [4(b), Methyl 2-deoxy-2-(3,4-didecyloxybenzoyl)amino-3-O-(3,4-didecyloxybenzoyl)-4-O-sulfo-α-D-glucopyranoside]
- Apperarent tumor weight ([4]; 3 mg/kg iv, Day 7): 0.218 ± 0.028 g
- Apperarent tumor weight ([4]; 3 mg/kg iv, Day 10): 0.172 ± 0.094 g
- Apperarent tumor weight ([4]; 3 mg/kg iv, Day 13): 0.272 ± 0.181 g
- Apperarent tumor weight ([4]; 3 mg/kg iv, Day 16): 0.430 ± 0.459 g
- Apperarent tumor weight ([4]; 10 mg/kg iv, Day 7): 0.217 ± 0.022 g
- Apperarent tumor weight ([4]; 10 mg/kg iv, Day 10): 0.154 ± 0.042 g
- Apperarent tumor weight ([4]; 10 mg/kg iv, Day 13): 0.197 ± 0.068 g
- Apperarent tumor weight ([4]; 10 mg/kg iv, Day 16): 0.172 ± 0.141 g
- effect on prolongation of life [4]: significant effect
- effect on tumore regression [4]: significant effect
- Survival period ([4]; dose 3 (mg/kg)): 61.6 ± 18.0 days
- Survival period ([4]; dose 10 (mg/kg)): 65.8 ± 20.4 days

Compound: CCCCCCCCCCCCCC(=O)N[C@H]1C(O)O[C@H](CO)[C@@H](OS(=O)(=O)O)[C@@H]1OC(=O)c1ccc(OCCCCCCCCCC)c(OCCCCCCCCCC)c1 (stereo partly drawn) [4(c)]
- Apperarent tumor weight ([4]; 3 mg/kg iv, Day 7): 0.200 ± 0.044 g
- Apperarent tumor weight ([4]; 3 mg/kg iv, Day 10): 0.230 ± 0.084 g
- Apperarent tumor weight ([4]; 3 mg/kg iv, Day 13): 0.392 ± 0.176 g
- Apperarent tumor weight ([4]; 3 mg/kg iv, Day 16): 0.578 ± 0.274 g
- Apperarent tumor weight ([4]; 10 mg/kg iv, Day 7): 0.210 ± 0.025 g
- Apperarent tumor weight ([4]; 10 mg/kg iv, Day 10): 0.206 ± 0.053 g
- Apperarent tumor weight ([4]; 10 mg/kg iv, Day 13): 0.242 ± 0.086 g
- Apperarent tumor weight ([4]; 10 mg/kg iv, Day 16): 0.300 ± 0.193 g
- Apperarent tumor weight ([4]; 30 mg/kg iv, Day 7): 0.209 ± 0.023 g
- Apperarent tumor weight ([4]; 30 mg/kg iv, Day 10): 0.168 ± 0.062 g
- Apperarent tumor weight ([4]; 30 mg/kg iv, Day 13): 0.222 ± 0.152 g
- Apperarent tumor weight ([4]; 30 mg/kg iv, Day 16): 0.309 ± 0.259 g
- effect on prolongation of life [4]: significant effect
- effect on tumore regression [4]: significant effect
- Survival period ([4]; dose 3 (mg/kg)): 51.9 ± 8.2 days
- Survival period ([4]; dose 10 (mg/kg)): 58.3 ± 13.8 days
- Survival period ([4]; dose 30 (mg/kg)): 71.3 ± 16.1 days

Compound: CCCCCCCCCCC[C@@H](CC(=O)N[C@H]1CO[C@H](C)[C@@H](OS(=O)(=O)O)[C@@H]1OC(=O)CCCCCCCCc1ccccc1)OC(=O)CCCCCCCCc1ccccc1 [Example 2, 2,6-deoxy-2-[3S-(9-phenylnonanoyloxy)tetradecanoyl]amino-3-O-(9-phenynonanoyl)-4-O-sulfo-1,5-anhydro-D-glucitol]
- fold induction at 1 µg/mL [1]: 33
